Laboratory results from patent publication US9012443B2 (Amgen Inc., priority 2011, dated 2015).

Columns and labels:
Nav 1.7 [1] = biological target: T1, Nav 1.7 (Homo sapiens (Human), UniProt Q15858); assay: Nav 1.7 IWQ in vitro assay (IonWorks Quattro population patch-clamp); format: cell-based; details: 293 cells stably transfected with Nav 1.7; second part of table; read-out: Nav1.7 IWQ IC50 IP
Outline: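 Percent block, measured in duplicate, came from peak minus end-of-pulse current on the 26th −20 mV step, and IC50 was fitted against concentration. Stably transfected 293 cells were recorded in population patch-clamp mode before and after a single test concentration, which was added over 3–8 min while cells were unclamped.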

Nav 1.7 [2] = biological target: T1, Nav 1.7; assay: Nav 1.7 in vitro PX assay (PatchXpress whole cell voltage clamp); format: cell-based; details: 293 cells, human Nav1.7, partially inactivated state; read-out: Nav1.7 PX IC50 IP
Outline: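 Partially inactivated channel state (holding potential for 20–50% inactivation) probed in human Nav1.7-transfected 293 cells by automated patch clamp, test pulse −10 mV for 20 msec.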

T1 sequence (Q15858 whole entry): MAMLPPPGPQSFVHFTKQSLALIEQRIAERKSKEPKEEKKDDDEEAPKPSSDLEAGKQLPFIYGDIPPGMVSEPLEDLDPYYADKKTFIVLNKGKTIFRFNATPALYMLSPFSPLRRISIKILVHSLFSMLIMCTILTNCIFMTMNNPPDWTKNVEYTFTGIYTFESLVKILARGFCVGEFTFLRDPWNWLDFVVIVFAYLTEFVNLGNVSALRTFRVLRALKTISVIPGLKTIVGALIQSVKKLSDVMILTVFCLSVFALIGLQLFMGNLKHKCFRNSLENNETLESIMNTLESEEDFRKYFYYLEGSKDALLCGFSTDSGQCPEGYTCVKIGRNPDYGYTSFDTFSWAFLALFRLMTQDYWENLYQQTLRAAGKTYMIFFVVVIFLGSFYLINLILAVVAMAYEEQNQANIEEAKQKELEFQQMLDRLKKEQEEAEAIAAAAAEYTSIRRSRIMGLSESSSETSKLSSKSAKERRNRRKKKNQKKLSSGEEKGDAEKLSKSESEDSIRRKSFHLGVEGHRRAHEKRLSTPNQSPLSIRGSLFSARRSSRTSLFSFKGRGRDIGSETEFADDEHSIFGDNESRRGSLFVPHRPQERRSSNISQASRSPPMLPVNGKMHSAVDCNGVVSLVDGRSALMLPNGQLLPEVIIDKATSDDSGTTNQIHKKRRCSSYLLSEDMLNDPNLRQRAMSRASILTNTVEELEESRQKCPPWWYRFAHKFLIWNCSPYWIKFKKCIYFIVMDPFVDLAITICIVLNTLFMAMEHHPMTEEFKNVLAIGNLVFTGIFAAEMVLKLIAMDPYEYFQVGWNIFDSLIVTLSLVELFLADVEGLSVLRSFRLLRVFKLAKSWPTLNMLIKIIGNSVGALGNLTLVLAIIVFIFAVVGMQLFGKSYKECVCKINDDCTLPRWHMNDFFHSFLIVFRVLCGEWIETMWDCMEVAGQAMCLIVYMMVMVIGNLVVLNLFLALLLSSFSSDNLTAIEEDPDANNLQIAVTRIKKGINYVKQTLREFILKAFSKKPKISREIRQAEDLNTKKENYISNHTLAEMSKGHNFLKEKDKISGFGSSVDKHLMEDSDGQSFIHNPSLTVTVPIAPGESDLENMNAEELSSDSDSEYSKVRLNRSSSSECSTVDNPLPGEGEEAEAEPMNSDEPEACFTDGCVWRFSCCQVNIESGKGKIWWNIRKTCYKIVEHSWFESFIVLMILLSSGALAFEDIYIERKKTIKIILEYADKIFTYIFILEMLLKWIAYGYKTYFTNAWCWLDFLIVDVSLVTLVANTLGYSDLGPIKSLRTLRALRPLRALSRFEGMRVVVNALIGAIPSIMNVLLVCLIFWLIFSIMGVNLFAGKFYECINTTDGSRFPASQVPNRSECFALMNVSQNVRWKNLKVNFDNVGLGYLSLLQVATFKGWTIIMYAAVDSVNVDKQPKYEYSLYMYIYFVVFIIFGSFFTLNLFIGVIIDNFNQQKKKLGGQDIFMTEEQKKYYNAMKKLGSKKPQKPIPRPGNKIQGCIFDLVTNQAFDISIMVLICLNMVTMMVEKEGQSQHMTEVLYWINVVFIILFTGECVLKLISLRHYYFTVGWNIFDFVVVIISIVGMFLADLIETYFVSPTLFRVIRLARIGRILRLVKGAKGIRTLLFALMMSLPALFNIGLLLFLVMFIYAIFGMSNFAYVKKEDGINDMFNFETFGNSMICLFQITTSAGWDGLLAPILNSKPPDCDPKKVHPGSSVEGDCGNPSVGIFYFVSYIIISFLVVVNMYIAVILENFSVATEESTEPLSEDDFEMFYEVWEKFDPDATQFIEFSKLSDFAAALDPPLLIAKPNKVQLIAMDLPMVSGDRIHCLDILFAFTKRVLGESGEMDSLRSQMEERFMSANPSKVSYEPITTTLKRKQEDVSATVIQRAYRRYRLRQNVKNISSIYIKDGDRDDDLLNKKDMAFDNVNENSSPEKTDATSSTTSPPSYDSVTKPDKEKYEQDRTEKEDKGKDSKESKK

SMILES	IC50 (Nav 1.7 [1])	IC50 (Nav 1.7 [2])
O=S(=O)(Nc1ccncn1)c1ccc2c(OCc3nccn3Cc3ccc(Cl)cc3)nccc2c1 [Example 133, 1-((1-(4-CHLOROBENZYL)-1H-IMIDAZOL-2-YL)METHOXY)-N-(PYRIMIDIN-4-YL)ISOQUINOLINE-6-SULFONAMIDE]	1830 nM	34100 nM
O=S(=O)(Nc1ccncn1)c1ccc2c(OCc3cccc4[nH]ncc34)nccc2c1 [Example 136, 1-((1H-INDAZOL-4-YL)METHOXY)-N-(PYRIMIDIN-4-YL)ISOQUINOLINE-6-SULFONAMIDE]	3590 nM	> 30000 nM
N#Cc1cccc(COc2nccc3cc(S(=O)(=O)Nc4ccncn4)ccc23)c1 [Example 137, 1-((3-CYANOBENZYL)OXY)-N-(PYRIMIDIN-4-YL)ISOQUINOLINE-6-SULFONAMIDE]	3910 nM	> 30000 nM
COc1ccc(C(F)(F)F)cc1-c1nccc2cc(S(=O)(=O)Nc3ccncn3)ccc12 [Example 139, 1-(2-METHOXY-5-(TRIFLUOROMETHYL)PHENYL)-N-(PYRIMIDIN-4-YL)ISOQUINOLINE-6-SULFONAMIDE]	10 nM	415 nM
COc1ccccc1-c1nccc2cc(S(=O)(=O)Nc3ccncn3)ccc12 [Example 140, 1-(2-METHOXYPHENYL)-N-(PYRIMIDIN-4-YL)ISOQUINOLINE-6-SULFONAMIDE]	90 nM	10700 nM
O=S(=O)(Nc1ccncn1)c1ccc2c(-c3ccc(C(F)(F)F)cc3)nccc2c1 [Example 141, N-(PYRIMIDIN-4-YL)-1-(4-(TRIFLUOROMETHYL)PHENYL)ISOQUINOLINE-6-SULFONAMIDE]	2300 nM	29600 nM
COc1cc(F)c(F)cc1-c1nccc2cc(S(=O)(=O)Nc3ccncn3)ccc12 [Example 142, 1-(4,5-DIFLUORO-2-METHOXYPHENYL)-N-(PYRIMIDIN-4-YL)ISOQUINOLINE-6-SULFONAMIDE]	60 nM	1790 nM
COc1ccc(-c2nccc3cc(S(=O)(=O)Nc4ccncn4)ccc23)c(OC)n1 [Example 145, 1-(2,6-DIMETHOXYPYRIDIN-3-YL)-N-(PYRIMIDIN-4-YL)ISOQUINOLINE-6-SULFONAMIDE]	920 nM	16400 nM
COc1ccc(Cl)cc1-c1nccc2cc(S(=O)(=O)Nc3ccncn3)ccc12 [Example 146, 1-(5-CHLORO-2-METHOXYPHENYL)-N-(PYRIMIDIN-4-YL)ISOQUINOLINE-6-SULFONAMIDE]	30 nM	1370 nM
COc1ccc(OC)c(-c2nccc3cc(S(=O)(=O)Nc4ccncn4)ccc23)c1 [Example 147, 1-(2,5-DIMETHOXYPHENYL)-N-(PYRIMIDIN-4-YL)ISOQUINOLINE-6-SULFONAMIDE]	130 nM	5820 nM
COc1ccc(F)cc1-c1nccc2cc(S(=O)(=O)Nc3ccncn3)ccc12 [Example 148, 1-(5-FLUORO-2-METHOXYPHENYL)-N-(PYRIMIDIN-4-YL)ISOQUINOLINE-6-SULFONAMIDE]	80 nM	2410 nM
COc1ccc(C)cc1-c1nccc2cc(S(=O)(=O)Nc3ccncn3)ccc12 [Example 149]	60 nM	2400 nM
COc1ccc(C#N)cc1-c1nccc2cc(S(=O)(=O)Nc3ccncn3)ccc12 [Example 150, 1-(5-CYANO-2-METHOXYPHENYL)-N-(PYRIMIDIN-4-YL)ISOQUINOLINE-6-SULFONAMIDE]	120 nM	7190 nM
COc1ccc(OC(F)(F)F)cc1-c1nccc2cc(S(=O)(=O)Nc3ccncn3)ccc12 [Example 151, 1-(2-METHOXY-5-(TRIFLUOROMETHOXY)PHENYL)-N-(PYRIMIDIN-4-YL)ISOQUINOLINE-6-SULFONAMIDE]	30 nM	1020 nM
COc1cc(OC(F)(F)F)ccc1-c1nccc2cc(S(=O)(=O)Nc3ccncn3)ccc12 [Example 153, 1-(2-METHOXY-4-(TRIFLUOROMETHOXY)PHENYL)-N-(PYRIMIDIN-4-YL)ISOQUINOLINE-6-SULFONAMIDE]	20 nM	914 nM
COc1cc(F)c(C)cc1-c1nccc2cc(S(=O)(=O)Nc3ccncn3)ccc12 [Example 154]	40 nM	2180 nM
COc1cc2ccccc2cc1-c1nccc2cc(S(=O)(=O)Nc3ccncn3)ccc12 [Example 155, 1-(3-METHOXYNAPHTHALEN-2-YL)-N-(PYRIMIDIN-4-YL)ISOQUINOLINE-6-SULFONAMIDE]	30 nM	1130 nM
O=S(=O)(Nc1ccncn1)c1ccc2c(-c3ccc(C(F)(F)F)cc3Cl)nccc2c1 [Example 156, 1-(2-CHLORO-4-(TRIFLUOROMETHYL)PHENYL)-N-(PYRIMIDIN-4-YL)ISOQUINOLINE-6-SULFONAMIDE]	220 nM	2850 nM
COc1cccc(F)c1-c1nccc2cc(S(=O)(=O)Nc3ccncn3)ccc12 [Example 158, 1-(2-FLUORO-6-METHOXYPHENYL)-N-(PYRIMIDIN-4-YL)ISOQUINOLINE-6-SULFONAMIDE]	180 nM	5030 nM
COc1cc(Cl)ccc1-c1nccc2cc(S(=O)(=O)Nc3ccncn3)ccc12 [Example 160, 1-(4-CHLORO-2-METHOXYPHENYL)-N-(PYRIMIDIN-4-YL)ISOQUINOLINE-6-SULFONAMIDE]	20 nM	1330 nM
COc1cc(Cl)c(Cl)cc1-c1nccc2cc(S(=O)(=O)Nc3ccncn3)ccc12 [Example 161, 1-(4,5-DICHLORO-2-METHOXYPHENYL)-N-(PYRIMIDIN-4-YL)ISOQUINOLINE-6-SULFONAMIDE]	20 nM	393 nM
COc1cc(C(F)(F)F)ccc1-c1nccc2cc(S(=O)(=O)Nc3ccnc(C)n3)ccc12 [Example 182, 1-(2-METHOXY-4-(TRIFLUOROMETHYL)PHENYL)-N-(2-METHYLPYRIMIDIN-4-YL)ISOQUINOLINE-6-SULFONAMIDE]	4260 nM	11700 nM

Second part, the molecule after the results:

IC50 (Nav 1.7 [1])	IC50 (Nav 1.7 [2])	SMILES
5430 nM	> 30000 nM	Cc1cc2cnn(C)c2cc1-c1nccc2cc(S(=O)(=O)Nc3ccncn3)ccc12 [Example 165]
50 nM	4260 nM	COc1cc(F)ccc1-c1nccc2cc(S(=O)(=O)Nc3ccncn3)ccc12 [Example 167, 1-(4-FLUORO-2-METHOXYPHENYL)-N-(PYRIMIDIN-4-YL)ISOQUINOLINE-6-SULFONAMIDE]
30 nM	1600 nM	COc1ncc(Cl)cc1-c1nccc2cc(S(=O)(=O)Nc3ccncn3)ccc12 [Example 168, 1-(5-CHLORO-2-METHOXYPYRIDIN-3-YL)-N-(PYRIMIDIN-4-YL)ISOQUINOLINE-6-SULFONAMIDE]
730 nM	23000 nM	COc1cccc(OC)c1-c1nccc2cc(S(=O)(=O)Nc3ccncn3)ccc12 [Example 171, 1-(2,6-DIMETHOXYPHENYL)-N-(PYRIMIDIN-4-YL)ISOQUINOLINE-6-SULFONAMIDE]
270 nM	16600 nM	COc1ccc(-c2nccc3cc(S(=O)(=O)Nc4ccncn4)ccc23)c(OC)c1 [Example 172, 1-(2,4-DIMETHOXYPHENYL)-N-(PYRIMIDIN-4-YL)ISOQUINOLINE-6-SULFONAMIDE]
430 nM	8750 nM	CCOc1ccccc1-c1nccc2cc(S(=O)(=O)Nc3ccncn3)ccc12 [Example 173, 1-(2-ETHOXYPHENYL)-N-(PYRIMIDIN-4-YL)ISOQUINOLINE-6-SULFONAMIDE]
640 nM	29800 nM	O=S(=O)(Nc1ccncn1)c1ccc2c(-c3ccccc3OCC(F)(F)F)nccc2c1 [Example 174, N-(PYRIMIDIN-4-YL)-1-(2-(2,2,2-TRIFLUOROETHOXY)PHENYL)ISOQUINOLINE-6-SULFONAMIDE]
30 nM	507 nM	COc1ncc(Cl)cc1-c1nccc2cc(S(=O)(=O)Nc3nccs3)ccc12 [Example 176, 1-(5-CHLORO-2-METHOXYPYRIDIN-3-YL)-N-(THIAZOL-2-YL)ISOQUINOLINE-6-SULFONAMIDE]
40 nM	439 nM	COc1ccc(C(F)(F)F)cc1-c1nccc2cc(S(=O)(=O)Nc3nccs3)ccc12 [Example 180, 1-(2-METHOXY-5-(TRIFLUOROMETHYL)PHENYL)-N-(THIAZOL-2-YL)ISOQUINOLINE-6-SULFONAMIDE]
110 nM	1560 nM	COc1cc(NS(=O)(=O)c2ccc3c(-c4ccc(C(F)(F)F)cc4OC)nccc3c2)ncn1 [Example 181, 1-(2-METHOXY-4-(TRIFLUOROMETHYL)PHENYL)-N-(6-METHOXYPYRIMIDIN-4-YL)ISOQUINOLINE-6-SULFONAMIDE]
670 nM	5870 nM	COc1cc(C(F)(F)F)ccc1-c1nccc2cc(S(=O)(=O)Nc3ncncc3F)ccc12 [Example 183, N-(5-FLUOROPYRIMIDIN-4-YL)-1-(2-METHOXY-4-(TRIFLUOROMETHYL)PHENYL)ISOQUINOLINE-6-SULFONAMIDE]
320 nM	912 nM	COc1cc(C(F)(F)F)ccc1-c1nccc2cc(S(=O)(=O)Nc3nncs3)ccc12 [Example 184, 1-(2-METHOXY-4-(TRIFLUOROMETHYL)PHENYL)-N-(1,3,4-THIADIAZOL-2-YL)ISOQUINOLINE-6-SULFONAMIDE]
270 nM	2700 nM	COc1cc(C(F)(F)F)ccc1-c1nccc2cc(S(=O)(=O)Nc3cccnn3)ccc12 [Example 185, 1-(2-METHOXY-4-(TRIFLUOROMETHYL)PHENYL)-N-(PYRIDAZIN-3-YL)ISOQUINOLINE-6-SULFONAMIDE]
200 nM	3540 nM	COc1cc(C(F)(F)F)ccc1-c1nccc2cc(S(=O)(=O)Nc3ncccn3)ccc12 [Example 188, 1-(2-METHOXY-4-(TRIFLUOROMETHYL)PHENYL)-N-(PYRIMIDIN-2-YL)ISOQUINOLINE-6-SULFONAMIDE]
460 nM	5960 nM	O=S(=O)(Nc1nccs1)c1ccc2c(-c3ccc(F)cc3O)nccc2c1 [Example 189, 1-(4-FLUORO-2-HYDROXYPHENYL)-N-(THIAZOL-2-YL)ISOQUINOLINE-6-SULFONAMIDE]
